TGI data for 16 molecules are collected here from PubChem BioAssay (NCI).

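Method: 48-hour compound exposure of cells in 96-well plates, five concentrations, linear interpolation of endpoints. TGI marks complete inhibition of growth.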 Some results are limits rather than exact numbers.

Common to all, as to assay: inhibition of tumour cell growth, NCI panel, 48 h
Assay [1] relates to TK-10 renal.
Assay [2] relates to SW-620 colon.
The test system of assay [3] is OVCAR-3 ovarian.
Assay [4] relates to SNB-19 CNS.
The subject of assay [5] is HCT-116 colon.
Assay [6] concerns SNB-75 CNS.
Assay [7] has as its system CCRF-CEM leukemia.
For assay [8], the system named is LOX IMVI melanoma.
Assay [9] concerns PC-3 prostate.
Assay [10] has as its system HOP-92 NSCLC.

With `CC(C)C(Nc1c2ccccc2[n+](C)c2ccccc12)C(=O)O` (centres undefined), the TGI in assay [1], in [2], in assay [3], in assay [4], in [5] and in [6] was > 100 µM each time.
Turning to `CC1=NN(c2cc(Cl)c(S(=O)(=O)O)cc2Cl)C2(C1)C(Cl)C(=O)N2c1nc2ccccc2s1` (centres undefined), the TGI in assay [1], in assay [7], in assay [8], in assay [9], in assay [2] and in assay [4] was > 100 µM each time. In addition, the TGI in [5], in assay [10] and in [6] was > 100 µM in each case.
For `FC(F)(Sc1ncccn1)c1nc2ccccc2o1`, the TGI in assay [1], in [7], in assay [9], in [2], in assay [3] and in assay [5] was > 100 µM in each case. Moreover, the TGI in [10] was > 100 µM; in assay [6], 81.2 µM.
With `O=C(c1ccccc1)C1C(c2ccccc2[N+](=O)[O-])N1C1CCCCC1` (centres undefined), the TGI in assay [1] was 7.4 µM; in assay [8], 5.18 µM; in [9], 15.9 µM; in [2] it was > 26.6 µM; in [3] it was 7.82 µM; in [4], 32.3 µM. In addition, the TGI was determined as 8.6 µM in assay [5] and 16.2 µM in assay [10].
With `N#Cc1nc(-c2ccsc2)oc1N`, the TGI in assay [1], in assay [7], in assay [8], in [9], in assay [2] and in [4] was > 100 µM throughout. In addition, the TGI in [5], in [10] and in [6] was > 100 µM each time.
Turning to `Nc1ncnc2c1ncn2C1C(O)C=C(CO)C1O` (centres undefined), the TGI in [8], in [2], in [3], in assay [4], in assay [5] and in assay [10] was > 625 µM each time.
For the molecule `COc1ccc(Nc2nc(N)c(C(=O)c3ccco3)s2)cc1`, the TGI in assay [1] is > 57.5 µM; in assay [7], > 56.1 µM; in [8], > 100 µM; in [9], > 100 µM; in [2] it was > 100 µM; in assay [3], > 70.6 µM. The TGI is > 100 µM in assay [4], > 66.4 µM in [5] and > 100 µM in assay [10].
In the case of `O=C(Nc1nnc(-c2ccccc2)o1)C(SC(=S)N1CCCC1)c1ccccc1` (centres undefined), the TGI in [1] is > 100 µM; in assay [7] it was 71.4 µM; in [8], 41.4 µM; in [9] it was > 100 µM; in [2], > 100 µM; in assay [3], 74.4 µM. Besides, the figures for the TGI in assay [4], in assay [5] and in [6] were > 100 µM, 79.5 µM and > 100 µM, respectively.
With `COc1cc(C2C3=C(NC(=O)C2C#N)c2ccc4ccccc4c2OCC3)cc(OC)c1OC` (centres undefined), the TGI in assay [1], in assay [7], in assay [9], in assay [2], in assay [3] and in assay [4] was > 100 µM in each case. Moreover, the results for the TGI in [5], in [10] and in assay [6] were 29.1 µM, 29.7 µM and 34.5 µM, respectively.
Regarding `C[N+](C)([O-])C12CC3CC(CC(C3)C1)C2`, the TGI is 88 µM in assay [1]; > 100 µM in [7]; 63.8 µM in assay [8]; > 100 µM in assay [9]; > 100 µM in [2]; 58 µM in assay [3]. Further, the values for the TGI in [4], in [5] and in assay [6] were > 100 µM, 91.2 µM and > 100 µM, respectively.
For `COc1cc(-c2cc(OC)c(OC)c3ccc(Br)cc23)c2cc(Br)ccc2c1OC`, the TGI in [1] was 52.7 µM; in assay [8] it was 46.6 µM; in assay [9] it was 58 µM; in assay [2], > 100 µM; in assay [3], 46.5 µM; in assay [4], > 100 µM. In addition, the TGI in assay [5] amounted to 24.9 µM; in [10] it was 40.3 µM.
As to `COC1=C(OC)C(=O)C(Cc2c(-c3ccccc3)nc3sc(Cl)cn23)=C(C)C1=O`, the TGI worked out at 45 µM in assay [1]; 53 µM in assay [7]; 71.7 µM in assay [8]; 33.3 µM in assay [9]; 50.6 µM in assay [2]; 32 µM in [3]. Further, the TGI in assay [4] came out at 35.3 µM; in assay [5], 39.9 µM.
Regarding `O=C(CN1CCCC1)Nc1ccc2c(c1)C1Oc3ccccc3CC1CO2` (centres undefined), the TGI in assay [1] was > 100 µM; in [7], > 100 µM; in assay [8], 44.5 µM; in assay [9], 68.3 µM; in assay [2], 35.6 µM; in [3] it was > 100 µM. The TGI in [5] and in assay [10] was > 100 µM each time.
With `CCOC(=O)NCC(=O)NCC(=O)NCC(N)=O`, the TGI in assay [1], in assay [7], in assay [9], in [2], in [3] and in assay [4] was > 100 µM in each case. Moreover, in assay [5], the TGI was > 100 µM.
Regarding `CC1(O)CC23CC(O)C4(O)C(CC(O)C4(C)C)C(C)(O)C2CCC1C3O` (centres undefined), the TGI in assay [1], in [7], in [8], in assay [9], in assay [2] and in assay [4] was > 100 µM each time. In addition, the TGI in assay [5] and in assay [10] was > 100 µM each time.
For `O=C(O)C1C2OC(C(Br)C2Br)C1C(=O)O` (centres undefined), the TGI in [1], in assay [8], in [9], in assay [2], in assay [3] and in assay [4] was > 100 µM throughout. In addition, the TGI in assay [5] and in assay [6] was > 100 µM throughout.
